Data set [1] can be described thus: logP determination by HPLC on reversed phase column (C 18), EEC Directive 79/831 Annex V.A8. The note with it: reversed phase C18 HPLC column; pH=2.3. The class given is physicochemical. The method, then: Determination of the logP values indicated in Table 1 took place in accordance with EEC Directive 79/831 Annex V.A8 by HPLC (high performance liquid chromatography) on a reversed phase column (C 18). Temperature: 43° C. (a) Eluent for determination in the acidic range: 0.1% aqueous phosphoric acid, acetonitrile; linear gradient from 10% acetonitrile to 90% acetonitrile—corresponding measured results are marked with ^a) in Table 1. Calibration took place with unbranched alkan-2-ones (having 3 to 16 carbon atoms) whose logP values are known (determination of the logP values on the basis of the retention times by linear interpolation between two consecutive alkanones).

In data set [2] the test system is weeds. The data set is described as follows: Pre-emergence test (Example A), effect on weeds. The class given is in vivo. The conditions noted are these: soil sprayed 24 hours after sowing, assessed after three weeks. As for the experimental part:
To produce an expedient preparation of active substance, 1 part by weight of active substance is mixed with the stated amount of solvent, the stated amount of emulsifier is added and the concentrate is diluted with water to the required concentration.
Seeds of the test plants are sown in normal soil. After 24 hours, the soil is sprayed with the active substance preparation in such a way that the respective desired application rate of active substance per unit area is achieved. The active substance concentration in the spray liquor is selected so that the respective required application rate of active substance is achieved with 1000 litres of water per hectare.
After three weeks, the degree of damage to the plants is assessed in % damage by comparison with the development of the untreated control.

For data set [3], the system named is weeds. The data set is described as follows: Post-emergence test (Example B), effect on weeds. The conditions noted are these: test plants 5-15 cm high sprayed, assessed after three weeks. The class given is in vivo. As for the experimental part: To produce an expedient preparation of active substance, 1 part by weight of active substance is mixed with the stated amount of solvent, the stated amount of emulsifier is added, and the concentrate is diluted with water to the required concentration.
The active substance preparation is used to spray test plants which are 5-15 cm high in such a way that the respective desired application rate of active substance per unit area is achieved. The concentration of the spray liquor is chosen so that the respective required application rates of active substance are achieved in 1000 l of water/ha.
After three weeks, the degree of damage to the plants is assessed in % damage by comparison with the development of the untreated control. The meanings are:
0%=no effect (as untreated control)

What is called chromatographic logP is a lipophilicity value derived from retention on a column. Lower therefore signals a more hydrophilic compound.

With `N#C/N=C1\SCCN1Cc1cc(C(F)(F)F)ccc1C(=O)O` [Example (II-2), 2-[(2-cyanoimino-1,3-thiazolidin-3-yl)methyl]-4-trifluoro-methylbenzoic acid], the chromatographic logP in data set [1] was 2.01. As to `N#C/N=C1\SCCN1Cc1c(Cl)ccc(C(=O)C2C(=O)CCCC2=O)c1Cl` [Example 1, 3-[2,6-dichloro-3-[(2,6-dioxocyclohexyl)carbonyl]benzyl]-1,3-thiazolidin-2-ylidenecyanamide], the “effect on weeds (degree of damage vs untreated control)” value with weeds [2] and with weeds [3] was “strong effect on weeds” in each case. As to `N#C/N=C1\SCCN1Cc1cc(C(F)(F)F)ccc1C(=O)C1C(=O)CCCC1=O` [Example 2, 3-[2-[(2,6-dioxocyclohexyl)carbonyl]-5-trifluoromethyl-benzyl]-1,3-thiazolidin-2-ylidenecyanamide], the “effect on weeds (degree of damage vs untreated control)” value in the data set on weeds [2] is “strong effect on weeds”. In data set [1], this compound showed a chromatographic logP of 2.54. The compound `COC(=O)c1ccc(C(F)(F)F)cc1CN1CCS/C1=N\C#N` [Example (IIa-2), methyl 2-[(2-cyanoimino-1,3-thiazolidin-3-yl)methyl]-4-trifluoromethylbenzoate] gave a chromatographic logP in data set [1] of 2.53.

Source of the values: patent US20040097376A1, “Substituted aryl ketones and their use as herbicides” (priority 2000, published 2004).
